Like-named read-outs stand apart in the source and are kept apart here.
Target: ASGPR (Homo sapiens (Human), UniProt P07306)
Test: Affinity to ASGPR measured by surface plasmon resonance (SPR)
Assay type: binding
Conditions: ASGPR ligands
[1] = Table 2, Biacore 8K, 25° C., steady state fit, read-out: SPR Binding External Calculation: KD
[2] = Table 4, numeric lower bounds, read-out: ASGPR_PR Binding KD
[3] = Table 4, class symbols, read-out: ASGPR_PR Binding KD

Sequence of ASGPR (P07306 whole entry): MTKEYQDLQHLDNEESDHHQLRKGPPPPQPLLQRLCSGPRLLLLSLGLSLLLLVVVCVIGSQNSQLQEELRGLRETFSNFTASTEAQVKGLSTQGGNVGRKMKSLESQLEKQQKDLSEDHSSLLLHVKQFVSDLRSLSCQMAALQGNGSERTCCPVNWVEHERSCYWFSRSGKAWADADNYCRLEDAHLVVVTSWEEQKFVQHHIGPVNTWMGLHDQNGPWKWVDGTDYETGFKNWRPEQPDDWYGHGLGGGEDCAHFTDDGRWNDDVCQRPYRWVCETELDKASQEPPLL

## OC[C@H]1OC[C@@H](CCc2ccccc2)[C@@H](O)[C@H]1O [Compound A160, (2R,3R,4R,5R)-2-(hydroxymethyl)-5-phenethyltetrahydro-2H-pyran-3,4-diol]
[1]
  Kd: > 1000 µM

## CC(=O)NCCC[C@@H]1CO[C@H](CO)[C@H](O)[C@@H]1O [Compound A163, N-(3-((3R,4R,5R,6R)-4,5-dihydroxy-6-(hydroxymethyl)tetrahydro-2H-pyran-3-yl)propyl)acetamide]
[2]
  Kd: > 200 µM

## OC[C@H]1OC[C@@H](c2ccc(F)cc2)[C@@H](O)[C@H]1O [Compound A164, (2R,3R,4R,5R)-5-(4-fluorophenyl)-2-(hydroxymethyl)tetrahydro-2H-pyran-3,4-diol]
[1]
  Kd: 500 to 1000 µM

## CN(C)C(=O)[C@@H]1CO[C@H](CO)[C@H](O)[C@@H]1O [Compound A170, (3R,4R,5R,6R)-4,5-dihydroxy-6-(hydroxymethyl)-N,N-dimethyltetrahydro-2H-pyran-3-carboxamide]
[2]
  Kd: > 200 µM

## NC(=O)[C@@H]1CO[C@H](CO)[C@H](O)[C@@H]1O [Compound A174, (3R,4R,5R,6R)-4,5-dihydroxy-6-(hydroxymethyl)tetrahydro-2H-pyran-3-carboxamide]
[3]
  Kd: < 100 µM

## O=C1CCCN1[C@@H]1CO[C@H](CO)[C@H](O)[C@@H]1O [Compound A180, 1-((3R,4R,5R,6R)-4,5-dihydroxy-6-(hydroxymethyl)tetrahydro-2H-pyran-3-yl)pyrrolidin-2-one]
[3]
  Kd: < 100 µM

## OC[C@@H]1CO[C@H](CO)[C@H](O)[C@@H]1O [Compound A181, (2R,3R,4R,5R)-2,5-bis(hydroxymethyl)tetrahydro-2H-pyran-3,4-diol]
[1]
  Kd: 100 to 500 µM

## C[C@@H]1CO[C@H](CO)[C@H](O)[C@@H]1O [Compound A182, (2R,3R,4R,5R)-2-(hydroxymethyl)-5-methyltetrahydro-2H-pyran-3,4-diol]
[1]
  Kd: > 1000 µM

## CC(=O)NC[C@@H]1CO[C@H](CO)[C@H](O)[C@@H]1O [Compound A183, N-(((3R,4R,5R,6R)-4,5-dihydroxy-6-(hydroxymethyl)tetrahydro-2H-pyran-3-yl)methyl)acetamide]
[1]
  Kd: 100 to 500 µM

## [N-]=[N+]=NCC1CO[C@H](CO)[C@H](O)[C@@H]1O (stereo partly drawn) [Compound A184, (2R,3R,4R)-5-(azidomethyl)-2-(hydroxymethyl)tetrahydro-2H-pyran-3,4-diol]
[1]
  Kd: < 100 µM

## O=C(NC[C@@H]1CO[C@H](CO)[C@H](O)[C@@H]1O)C(F)(F)F [Compound A186, N-(((3R,4R,5R,6R)-4,5-dihydroxy-6-(hydroxymethyl)tetrahydro-2H-pyran-3-yl)methyl)-2,2,2-trifluoroacetamide]
[3]
  Kd: > 1000 µM

## OC[C@H]1OC[C@@H](CNc2nc(Cl)ns2)[C@@H](O)[C@H]1O [Compound A188, (2R,3R,4R,5R)-5-(((3-chloro-1,2,4-thiadiazol-5-yl)amino)methyl)-2-(hydroxymethyl)tetrahydro-2H-pyran-3,4-diol]
[3]
  Kd: 100 to 500 µM

## C[C@@H]1[C@H](Oc2ccccc2)O[C@H](CO)[C@H](O)[C@@H]1O [Compound A191, (2R,3R,4R,5S,6S)-2-(hydroxymethyl)-5-methyl-6-phenoxytetrahydro-2H-pyran-3,4-diol]
[1]
  Kd: > 1000 µM

## OC[C@H]1OC[C@@H](COc2ccccc2)[C@@H](O)[C@H]1O [Compound A193, (2R,3R,4R,5S)-2-(hydroxymethyl)-5-(phenoxymethyl)tetrahydro-2H-pyran-3,4-diol]
[1]
  Kd: 100 to 500 µM

## OC[C@H]1OC[C@@H](Cn2cnnn2)[C@@H](O)[C@H]1O [Compound A196, (2R,3R,4R,5R)-5-((1H-tetrazol-1-yl)methyl)-2-(hydroxymethyl)tetrahydro-2H-pyran-3,4-diol]
[1]
  Kd: < 100 µM

## OC[C@H]1OC[C@@H](CN2CCOCC2)[C@@H](O)[C@H]1O [Compound A209, (2R,3R,4R,5R)-2-(hydroxymethyl)-5-(morpholinomethyl)tetrahydro-2H-pyran-3,4-diol]
[1]
  Kd: > 1000 µM

## OC[C@H]1OC[C@@H](CN2CCCCC2)[C@@H](O)[C@H]1O [Compound A213, (2R,3R,4R,5R)-2-(hydroxymethyl)-5-(piperidin-1-ylmethyl)tetrahydro-2H-pyran-3,4-diol]
[3]
  Kd: 100 to 500 µM

## CO[C@@H]1O[C@H](CO)[C@H](O)[C@H](O)[C@@H]1OC [Compound A217, (2R,3R,4S,5S,6R)-2-(hydroxymethyl)-5,6-dimethoxytetrahydro-2H-pyran-3,4-diol]
[1]
  Kd: > 1000 µM

## CO[C@@H]1O[C@H](CO)[C@H](O)[C@H](O)[C@@H]1N1CCOCC1 [Compound A218, (2R,3R,4R,5S,6R)-2-(hydroxymethyl)-6-methoxy-5-morpholinotetrahydro-2H-pyran-3,4-diol]
[3]
  Kd: > 1000 µM

## OC[C@H]1OC=C(C(F)(F)F)[C@@H](O)[C@H]1O [Compound A221-2, (2R,3R,4R)-2-(hydroxymethyl)-5-(trifluoromethyl)-3,4-dihydro-2H-pyran-3,4-diol]
[2]
  Kd: > 200 µM

## OC[C@H]1OC[C@@H](N2CCOCC2)[C@@H](O)[C@H]1O [Compound A222, (2R,3R,4R,5R)-2-(hydroxymethyl)-5-morpholinotetrahydro-2H-pyran-3,4-diol]
[3]
  Kd: 100 to 500 µM

## O=C1OCCN1[C@@H]1CO[C@H](CO)[C@H](O)[C@@H]1O [Compound A223, 3-((3R,4R,5R,6R)-4,5-dihydroxy-6-(hydroxymethyl)tetrahydro-2H-pyran-3-yl)oxazolidin-2-one]
[3]
  Kd: < 100 µM

## O=c1nc(N[C@H]2CO[C@H](CO)[C@H](O)[C@@H]2O)[nH]c(=O)[nH]1 [Compound A283]
[1]
  Kd: 100 to 500 µM

## CO[C@@H]1O[C@H](COS(=O)(=O)c2ccc(C)cc2)[C@H](O)[C@H](O)[C@H]1NC(C)=O [Compound A286]
[1]
  Kd: < 100 µM

## OC[C@@]12CO[C@@H](O1)[C@H](Nc1nc(Cl)ns1)[C@@H](O)[C@H]2O [Compound A287, (1S,2R,3R,4R,5S)-4-((3-chloro-1,2,4-thiadiazol-5-yl)amino)-1-(hydroxymethyl)-6,8-dioxabicyclo[3.2.1]octane-2,3-diol]
[3]
  Kd: < 100 µM

## OC[C@@]12CO[C@@H](O1)[C@H](Nc1nc(Br)ns1)[C@@H](O)[C@H]2O [Compound A288]
[3]
  Kd: < 100 µM

## OC[C@@]12CO[C@@H](O1)[C@H](Nc1nccc(C(F)(F)F)n1)[C@@H](O)[C@H]2O [Compound A289]
[3]
  Kd: < 100 µM

## OC[C@@]12CO[C@@H](O1)[C@H](Nc1ncns1)[C@@H](O)[C@H]2O [Compound A290]
[3]
  Kd: < 100 µM

## OC[C@@]12CO[C@@H](O1)[C@H](Nc1nc(Cl)nn3cccc13)[C@@H](O)[C@H]2O [Compound A291]
[3]
  Kd: < 100 µM

## COc1cc(Cl)nc(N[C@H]2[C@H]3OC[C@](CO)(O3)[C@H](O)[C@@H]2O)n1 [Compound A292, (1S,2R,3R,4R,5S)-4-((4-chloro-6-methoxypyrimidin-2-yl)amino)-1-(hydroxymethyl)-6,8-dioxabicyclo[3.2.1]octane-2,3-diol]
[3]
  Kd: < 100 µM

## COc1cc(C#N)nc(N[C@H]2[C@H]3OC[C@](CO)(O3)[C@H](O)[C@@H]2O)n1 [Compound A294, 2-(((1S,2R,3R,4R,5S)-2,3-dihydroxy-1-(hydroxymethyl)-6,8-dioxabicyclo[3.2.1]octan-4-yl)amino)-6-methoxypyrimidine-4-carbonitrile]
[3]
  Kd: < 100 µM

## OC[C@H]1OC[C@H](Nc2cc(Cl)cc(Cl)n2)[C@@H](O)[C@H]1O [Compound A296]
[3]
  Kd: < 100 µM

## OC[C@H]1OC[C@H](Nc2cc(Cl)c(Cl)cn2)[C@@H](O)[C@H]1O [Compound A298]
[3]
  Kd: < 100 µM

## OC[C@H]1OC[C@H](Nc2nc(Br)ns2)[C@@H](O)[C@H]1O [Compound A299, (2R,3R,4R,5S)-5-[(3-bromo-1,2,4-thiadiazol-5-yl)amino]-2-(hydroxymethyl)oxane-3,4-diol]
[3]
  Kd: < 100 µM

## OC[C@H]1OC[C@H](Nc2nc(C(F)(F)F)ns2)[C@@H](O)[C@H]1O [Compound A300]
[3]
  Kd: < 100 µM

## OC[C@H]1OC[C@H](Nc2ccnc(C(F)(F)F)n2)[C@@H](O)[C@H]1O [Compound A301]
[3]
  Kd: < 100 µM

## OC[C@H]1OC[C@H](Nc2cccc(C(F)(F)F)n2)[C@@H](O)[C@H]1O [Compound A302]
[3]
  Kd: < 100 µM

## OC[C@H]1OC[C@H](Nc2nc(Cl)nn3cccc23)[C@@H](O)[C@H]1O [Compound A304]
[3]
  Kd: < 100 µM

## OC[C@H]1OC[C@H](Nc2nc(C(F)(F)F)cs2)[C@@H](O)[C@H]1O [Compound A306]
[3]
  Kd: < 100 µM

## OC[C@H]1OC[C@H](Nc2nccc(Cl)c2C(F)(F)F)[C@@H](O)[C@H]1O [Compound A307]
[3]
  Kd: < 100 µM

## OC[C@H]1OC[C@H](Nc2cc(C(F)(F)F)cnn2)[C@@H](O)[C@H]1O [Compound A308]
[2]
  Kd: > 20 µM

## N#Cc1ccnc(N[C@H]2CO[C@H](CO)[C@H](O)[C@@H]2O)n1 [Compound A309]
[3]
  Kd: < 100 µM

## OC[C@H]1OC[C@H](Nc2cc(C(F)(F)F)ncn2)[C@@H](O)[C@H]1O [Compound A310]
[2]
  Kd: > 20 µM

## OC[C@H]1OC[C@H](Nc2ncc(-c3ccccc3)cn2)[C@@H](O)[C@H]1O [Compound A311]
[2]
  Kd: > 20 µM

## N#Cc1cncc(N[C@H]2CO[C@H](CO)[C@H](O)[C@@H]2O)n1 [Compound A312]
[3]
  Kd: < 100 µM

## OC[C@H]1OC[C@H](Nc2ccc(C(F)(F)F)nn2)[C@@H](O)[C@H]1O [Compound A313]
[2]
  Kd: > 20 µM

## OC[C@H]1OC[C@H](Nc2cnc(C(F)(F)F)cn2)[C@@H](O)[C@H]1O [Compound A314]
[2]
  Kd: > 20 µM

## OC[C@H]1OC[C@H](Nc2cncc(C(F)(F)F)n2)[C@@H](O)[C@H]1O [Compound A315]
[3]
  Kd: < 100 µM

## OC[C@H]1OC[C@H](Nc2ccc(Cl)nn2)[C@@H](O)[C@H]1O [Compound A316]
[2]
  Kd: > 20 µM

## OC[C@H]1OC[C@H](Nc2ccnc(Cl)n2)[C@@H](O)[C@H]1O [Compound A317]
[3]
  Kd: < 100 µM

## OC[C@H]1OC[C@H](Nc2ncccn2)[C@@H](O)[C@H]1O [Compound A318]
[3]
  Kd: < 100 µM

## N#Cc1nc(Cl)cc(N[C@H]2CO[C@H](CO)[C@H](O)[C@@H]2O)n1 [Compound A320]
[3]
  Kd: < 100 µM

## OC[C@H]1OC[C@H](Nc2cc(Cl)ncn2)[C@@H](O)[C@H]1O [Compound A321]
[3]
  Kd: < 100 µM

## OC[C@H]1OC[C@H](Nc2nc3ccc(C(F)(F)F)cc3s2)[C@@H](O)[C@H]1O [Compound A322]
[2]
  Kd: > 20 µM

Source: patent US20240072809A1, “ASGPR-BINDING COMPOUNDS FOR THE DEGRADATION OF EXTRACELLULAR PROTEINS” (Avilar Therapeutics, Inc., priority 2020, published 2024)
